Assay results reported in ChEMBL document CHEMBL1136267, “Design and synthesis of novel PPARalpha/gamma/delta triple activators using a known PPARalpha/gamma dual activator as structural template” (Bioorg Med Chem Lett, 2003).

How the values were obtained:
[1] = target: T1, Peroxisome proliferator-activated receptor alpha (Homo sapiens, UniProt Q07869)
T1 sequence (Q07869 whole entry): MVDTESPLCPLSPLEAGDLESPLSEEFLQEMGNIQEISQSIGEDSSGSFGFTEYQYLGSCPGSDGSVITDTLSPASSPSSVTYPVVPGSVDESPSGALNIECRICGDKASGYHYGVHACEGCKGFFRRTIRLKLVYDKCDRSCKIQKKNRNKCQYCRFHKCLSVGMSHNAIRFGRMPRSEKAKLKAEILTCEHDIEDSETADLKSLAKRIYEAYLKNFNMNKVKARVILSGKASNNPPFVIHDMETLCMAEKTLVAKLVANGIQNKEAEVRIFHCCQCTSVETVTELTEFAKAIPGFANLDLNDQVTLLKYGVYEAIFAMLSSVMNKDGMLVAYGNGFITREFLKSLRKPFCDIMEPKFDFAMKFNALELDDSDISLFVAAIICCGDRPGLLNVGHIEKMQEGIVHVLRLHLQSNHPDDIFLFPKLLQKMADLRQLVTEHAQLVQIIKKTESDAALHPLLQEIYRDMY
Description: In vitro activation of human peroxisome proliferator activated receptor alpha

[2] = target: T2, Peroxisome proliferator-activated receptor delta (Homo sapiens, UniProt Q03181); assay: In vitro activation of human peroxisome proliferator activated receptor delta (PPAR delta)
T2 sequence (Q03181 whole entry): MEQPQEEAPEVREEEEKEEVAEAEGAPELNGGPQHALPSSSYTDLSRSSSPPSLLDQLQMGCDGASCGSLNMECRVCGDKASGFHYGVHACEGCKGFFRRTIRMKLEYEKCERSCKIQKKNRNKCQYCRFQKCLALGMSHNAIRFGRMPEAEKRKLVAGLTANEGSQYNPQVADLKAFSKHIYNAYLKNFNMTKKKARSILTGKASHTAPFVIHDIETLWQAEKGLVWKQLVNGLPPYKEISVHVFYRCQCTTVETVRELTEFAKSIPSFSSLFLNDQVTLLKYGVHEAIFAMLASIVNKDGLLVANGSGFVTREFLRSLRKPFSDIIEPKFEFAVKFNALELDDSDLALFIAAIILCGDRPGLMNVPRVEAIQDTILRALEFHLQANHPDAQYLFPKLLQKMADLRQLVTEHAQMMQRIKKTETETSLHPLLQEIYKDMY

[3] = target: T3, Peroxisome proliferator-activated receptor gamma (Homo sapiens, UniProt P37231); assay: In vitro activation of human peroxisome proliferator activated receptor gamma (PPAR gamma)
T3 sequence (P37231 whole entry): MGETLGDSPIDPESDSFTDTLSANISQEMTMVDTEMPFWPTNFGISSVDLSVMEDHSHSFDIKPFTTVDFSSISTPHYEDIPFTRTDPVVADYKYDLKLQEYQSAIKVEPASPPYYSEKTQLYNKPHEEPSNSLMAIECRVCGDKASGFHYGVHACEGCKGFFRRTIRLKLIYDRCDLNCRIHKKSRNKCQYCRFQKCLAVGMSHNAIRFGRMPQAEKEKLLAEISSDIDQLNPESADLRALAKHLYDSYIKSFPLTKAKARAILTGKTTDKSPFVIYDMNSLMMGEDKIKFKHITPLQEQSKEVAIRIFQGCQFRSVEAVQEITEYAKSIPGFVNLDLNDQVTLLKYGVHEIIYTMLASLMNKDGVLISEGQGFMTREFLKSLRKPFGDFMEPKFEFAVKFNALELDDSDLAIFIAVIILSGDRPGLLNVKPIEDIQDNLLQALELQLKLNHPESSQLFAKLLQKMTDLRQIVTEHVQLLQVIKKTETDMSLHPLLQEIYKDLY

Row | Structure (SMILES) | EC50 [1] [nM] | EC50 [2] [nM] | EC50 [3] [nM]
1 | CCO[C@@H](Cc1ccc(OCC=C(c2ccc(-c3ccccc3)cc2)c2ccc(-c3ccccc3)cc2)cc1)C(=O)O | 1100 | 500 | 300
2 | CCO[C@@H](Cc1ccc(OC/C=C(\c2ccccc2)c2ccc(-c3ccccc3)cc2)cc1)C(=O)O | 900 | 2200 | 600
3 | CCO[C@@H](Cc1ccc(OC/C=C(/c2ccccc2)c2ccc(-c3ccccc3)cc2)cc1)C(=O)O | 700 | 2200 | 1700
4 | CCO[C@@H](Cc1ccc(OCC=C(c2ccc(Br)cc2)c2ccc(Br)cc2)cc1)C(=O)O | 300 | 400 | 900
5 | CCO[C@@H](Cc1ccc(OC/C=C(\c2ccccc2)c2ccc(-c3ccco3)cc2)cc1)C(=O)O | 300 | 600 | 800
6 | CCO[C@@H](Cc1ccc(OC/C=C(/c2ccccc2)c2ccc(-c3ccco3)cc2)cc1)C(=O)O | 400 | 2000 | 2000

Continued, values first:

Row | EC50 [1] [nM] | EC50 [2] [nM] | EC50 [3] [nM] | Structure (SMILES)
7 | 6400 | 5700 | 2700 | CCO[C@@H](Cc1ccc(OCC=C(c2ccccc2)c2ccccc2)cc1)C(=O)O
8 | 3200 | 3400 | 4000 | CCO[C@@H](Cc1ccc(OC/C=C(/c2ccccc2)c2ccc(F)cc2)cc1)C(=O)O
9 | 5300 | 8300 | 8500 | CCO[C@@H](Cc1ccc(OC/C=C(\c2ccccc2)c2ccc(F)cc2)cc1)C(=O)O
10 | 2200 | 700 | 2200 | CCO[C@@H](Cc1ccc(OCC=C(c2ccc(OC)cc2)c2ccc(OC)cc2)cc1)C(=O)O
11 | 4500 | – | 3300 | CCO[C@@H](Cc1ccc(OCCN(c2ccccc2)c2ccccc2)cc1)C(=O)O
12 | 2200 | 3400 | 4300 | CCO[C@@H](Cc1ccc(OC/C=C(/c2ccccc2)c2ccc(Br)cc2)cc1)C(=O)O
13 | 2000 | 1000 | 2900 | CCO[C@@H](Cc1ccc(OCC=C(c2ccc(-c3ccco3)cc2)c2ccc(-c3ccco3)cc2)cc1)C(=O)O
14 | 700 | 2000 | 3100 | CCO[C@@H](Cc1ccc(OCC=C(c2ccc(C)cc2)c2ccc(C)cc2)cc1)C(=O)O
15 | 1100 | 900 | 1500 | CCO[C@@H](Cc1ccc(OC/C=C(\c2ccccc2)c2ccc(Br)cc2)cc1)C(=O)O
